# According to PubChem BioAssay AID330 (DTP/NCI, 2004):
# Where “and” joins values, the source holds several entries; their conditions need not be identical. Equal entries are not always repeated. Inconclusive results and toxic doses are left out.
# System: P388 leukemia ip, CD2F1 mice, survival T/C
# Assay: NCI In Vivo Anticancer Drug Screen. Data for tumor model P388 Leukemia (intraperitoneal) in CD2F1 (CDF1) mice
# Details: endpoint: median survival time, higher = longer survival
# Procedure, shortened: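 Mice carrying the transplanted tumor received test compound or vehicle. Survival was recorded in each group, and the value is the treated-group measurement divided by that of the vehicle-treated control group.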
# [1] = dose: 50.0 mg/kg/injection, schedule: Q01DX005 (ip), vehicle: saline
# [2] = dose: 100.0 mg/kg/injection, schedule: Q01DX005 (ip), vehicle: saline
# [3] = dose: 200.0 mg/kg/injection, schedule: Q01DX005 (ip), vehicle: saline
# [4] = dose: 12.5 mg/kg/injection, schedule: Q01DX009 (ip), vehicle: saline with Tween-80
# [5] = dose: 25.0 mg/kg/injection, schedule: Q01DX009 (ip), vehicle: saline with Tween-80
# [6] = dose: 50.0 mg/kg/injection, schedule: Q01DX009 (ip), vehicle: saline with Tween-80
# [7] = dose: 100.0 mg/kg/injection, schedule: Q01DX009 (ip), vehicle: saline with Tween-80
# [8] = dose: 50.0 mg/kg/injection, schedule: Q01DX005 (ip), vehicle: saline with Tween-80
# [9] = dose: 100.0 mg/kg/injection, schedule: Q01DX005 (ip), vehicle: saline with Tween-80
# [10] = dose: 200.0 mg/kg/injection, schedule: Q01DX005 (ip), vehicle: saline with Tween-80
# [11] = dose: 50.0 mg/kg/injection, schedule: Q01DX005 (ip), vehicle: Klucel (hydroxypropylcellulose) (HPC)
# [12] = dose: 100.0 mg/kg/injection, schedule: Q01DX005 (ip), vehicle: Klucel (hydroxypropylcellulose) (HPC)
# [13] = dose: 200.0 mg/kg/injection, schedule: Q01DX005 (ip), vehicle: Klucel (hydroxypropylcellulose) (HPC)
# [14] = dose: 50.0 mg/kg/injection, schedule: Q01DX001 (ip), vehicle: saline
# [15] = dose: 100.0 mg/kg/injection, schedule: Q01DX001 (ip), vehicle: saline
# [16] = dose: 12.5 mg/kg/injection, schedule: Q01DX009 (ip), vehicle: Klucel (hydroxypropylcellulose) (HPC)
# [17] = dose: 25.0 mg/kg/injection, schedule: Q01DX009 (ip), vehicle: Klucel (hydroxypropylcellulose) (HPC)
# [18] = dose: 50.0 mg/kg/injection, schedule: Q01DX009 (ip), vehicle: Klucel (hydroxypropylcellulose) (HPC)
# [19] = dose: 60.0 mg/kg/injection, schedule: Q01DX005 (ip), vehicle: saline with Tween-80
# [20] = dose: 120.0 mg/kg/injection, schedule: Q01DX005 (ip), vehicle: saline with Tween-80
# [21] = dose: 240.0 mg/kg/injection, schedule: Q01DX005 (ip), vehicle: saline with Tween-80
# [22] = dose: 200.0 mg/kg/injection, schedule: Q01DX009 (ip), vehicle: saline with Tween-80
smiles,measurement,setting,value
C=CCC1(CC=C)CC1OCC (stereo not drawn),T/C,[1],98 % of control
same,T/C,[2],100 % of control
same,T/C,[3],100 % of control
O=C(CCl)Nc1nccs1,T/C,[4],111 % of control
same,T/C,[5],112 % of control
same,T/C,[6],103 % of control
same,T/C,[7],116 % of control
CCS[C@@H](C(O)C(O)C(O)C(O)CO)n1cnc2c(Cl)ncnc21 (stereo partly drawn),T/C,[8],98 % of control
same,T/C,[9],102 % of control
same,T/C,[10],96 % of control
C[CH2][Ge]([CH2]C)[CH2]C.C[CH2][Ge]([CH2]C)[CH2]C(=O)OC,T/C,[11],99 % of control
same,T/C,[12],100 % of control
same,T/C,[13],100 % of control
CC(NC(=O)C(Cc1ccc(OC(=O)OCc2ccccc2)cc1)NC(=O)OCc1ccccc1)C(=O)OCc1ccccc1 (stereo not drawn),T/C,[8],96 % of control
same,T/C,[9],92 % of control
CCC(C(=O)O)C(=O)O.[NH2-].[NH2-].[Pt+2],T/C,[14],152 % of control
same,T/C,[15],175 % of control
same,T/C,"dose: 200.0 mg/kg/injection, schedule: Q01DX001 (ip), vehicle: saline",189 % of control and 205 % of control
O=C1C2C3C=CC(C3)C2C(=O)N1CNc1ccc2nc(SC3C=CCCC3)sc2c1 (stereo not drawn),T/C,[16],106 % of control
same,T/C,[17],101 % of control
same,T/C,[18],90 % of control and 98 % of control
same,T/C,"dose: 200.0 mg/kg/injection, schedule: Q01DX009 (ip), vehicle: Klucel (hydroxypropylcellulose) (HPC)",91 % of control
O=C(CO)N(O)c1ccc(Cl)cc1,T/C,"dose: 50.0 mg/kg/injection, schedule: Q01DX009 (ip), vehicle: water",109 % of control
same,T/C,"dose: 100.0 mg/kg/injection, schedule: Q01DX009 (ip), vehicle: water",101 % of control
O=c1[nH]c2c([N+](=O)[O-])cc(Cl)cc2nc1/C=C(\O)c1ccc(F)cc1,T/C,[19],101 % of control
same,T/C,[20],102 % of control
same,T/C,[21],106 % of control
NNC(=O)CNc1ccc(F)c(Cl)c1,T/C,"dose: 15.0 mg/kg/injection, schedule: Q01DX005 (ip), vehicle: saline with Tween-80",99 % of control
same,T/C,"dose: 30.0 mg/kg/injection, schedule: Q01DX005 (ip), vehicle: saline with Tween-80",96 % of control
same,T/C,[19],94 % of control and 97 % of control
same,T/C,[20],104 % of control
CCC[C@H]1[C@H](CCC)[C@@]2(OC(=O)C3=C2CCC=C3)[C@]12OC(=O)C1=C2CCC=C1,T/C,"dose: 11.25 mg/kg/injection, schedule: Q01DX005 (ip), vehicle: Klucel (hydroxypropylcellulose) (HPC)",98 % of control
same,T/C,"dose: 22.5 mg/kg/injection, schedule: Q01DX005 (ip), vehicle: Klucel (hydroxypropylcellulose) (HPC)",90 % of control
same,T/C,"dose: 45.0 mg/kg/injection, schedule: Q01DX005 (ip), vehicle: Klucel (hydroxypropylcellulose) (HPC)",88 % of control
same,T/C,"dose: 90.0 mg/kg/injection, schedule: Q01DX005 (ip), vehicle: Klucel (hydroxypropylcellulose) (HPC)",100 % of control
CCOc1ccc(C(C)c2cc3c(cc2OCC)OCO3)cc1C (stereo not drawn),T/C,"dose: 25.0 mg/kg/injection, schedule: Q01DX005 (ip), vehicle: Klucel (hydroxypropylcellulose) (HPC)",94 % of control
same,T/C,[11],110 % of control and 116 % of control and 97 % of control
same,T/C,[12],101 % of control and 119 % of control
same,T/C,[13],114 % of control
C=C(C#N)COc1ccc(Cl)cc1C,T/C,[16],101 % of control
same,T/C,[17],98 % of control
same,T/C,[18],104 % of control and 95 % of control
O=C(c1ccccc1)C1(c2ccccc2)CCCCC1,T/C,[19],94 % of control
same,T/C,[20],94 % of control
same,T/C,[21],86 % of control
O=C(O)CS(=O)(=O)CCCCCS(=O)(=O)CC(=O)O,T/C,"dose: 50.0 mg/kg/injection, schedule: Q01DX009 (ip), vehicle: saline",106 % of control
same,T/C,"dose: 100.0 mg/kg/injection, schedule: Q01DX009 (ip), vehicle: saline",104 % of control
same,T/C,"dose: 200.0 mg/kg/injection, schedule: Q01DX009 (ip), vehicle: saline",105 % of control
CS(=O)(=O)c1nc(N)c2nnn(C3OC(CO)C(O)C3O)c2n1 (stereo not drawn),T/C,"dose: 12.5 mg/kg/injection, schedule: Q01DX001 (ip), vehicle: saline",109 % of control
same,T/C,"dose: 25.0 mg/kg/injection, schedule: Q01DX001 (ip), vehicle: saline",100 % of control
same,T/C,[14],118 % of control
same,T/C,[15],109 % of control
CNC(=O)OCCN(CCOC(=O)NC)C(=O)N1c2ccccc2Sc2ccccc21,T/C,[4],94 % of control
same,T/C,[5],98 % of control
same,T/C,[6],91 % of control
same,T/C,[7],100 % of control
same,T/C,[22],100 % of control
C/C=C(\C(=O)OC)C1CC2OC(=O)C1(C=O)C13CCNC21N(C)c1ccccc13 (stereo not drawn),T/C,"dose: 4.5 mg/kg/injection, schedule: Q01DX005 (ip), vehicle: saline + Tween-80 + alcohol",104 % of control
same,T/C,"dose: 9.5 mg/kg/injection, schedule: Q01DX005 (ip), vehicle: saline + Tween-80 + alcohol",98 % of control
same,T/C,"dose: 18.0 mg/kg/injection, schedule: Q01DX005 (ip), vehicle: saline + Tween-80 + alcohol",104 % of control
same,T/C,"dose: 38.0 mg/kg/injection, schedule: Q01DX005 (ip), vehicle: saline + Tween-80 + alcohol",98 % of control
CCCCOc1ccc(-c2cnc(-c3ccc(-c4ncc(-c5ccc(OCCCC)cc5)o4)cc3)o2)cc1,T/C,"dose: 3.0 mg/kg/injection, schedule: Q01DX005 (ip), vehicle: saline with Tween-80",91 % of control
same,T/C,"dose: 6.0 mg/kg/injection, schedule: Q01DX005 (ip), vehicle: saline with Tween-80",88 % of control
same,T/C,"dose: 25.0 mg/kg/injection, schedule: Q01DX005 (ip), vehicle: saline with Tween-80",89 % of control
same,T/C,[8],87 % of control and 94 % of control
same,T/C,[9],99 % of control
same,T/C,[10],108 % of control
Cc1c(COC(=O)NC2CCCCC2)c(COC(=O)NC2CCCCC2)c2n1CCc1ccccc1-2,T/C,"dose: 12.5 mg/kg/injection, schedule: Q01DX009 (ip), vehicle: distilled water + Tween-80",178 % of control
same,T/C,"dose: 25.0 mg/kg/injection, schedule: Q01DX009 (ip), vehicle: distilled water + Tween-80",182 % of control
same,T/C,"dose: 50.0 mg/kg/injection, schedule: Q01DX009 (ip), vehicle: distilled water + Tween-80",101 % of control
COc1cc(C=Nc2ccc(-n3ccnc3C)cc2)ccc1N(CCCl)CCCl,T/C,"dose: 5.0 mg/kg/injection, schedule: Q01DX009 (ip), vehicle: Klucel (hydroxypropylcellulose) (HPC)",170 % of control
same,T/C,"dose: 10.0 mg/kg/injection, schedule: Q01DX009 (ip), vehicle: Klucel (hydroxypropylcellulose) (HPC)",181 % of control
same,T/C,"dose: 20.0 mg/kg/injection, schedule: Q01DX009 (ip), vehicle: Klucel (hydroxypropylcellulose) (HPC)",106 % of control
CC1OC(=O)c2ccccc2S1=O (stereo not drawn),T/C,[7],95 % of control
same,T/C,[22],90 % of control
same,T/C,"dose: 400.0 mg/kg/injection, schedule: Q01DX009 (ip), vehicle: saline with Tween-80",95 % of control
CN1C(=O)C2CCC1n1c(=O)n(-c3ccccc3)c(=O)n12 (stereo not drawn),T/C,"dose: 100.0 mg/kg/injection, schedule: Q01DX001 (ip), vehicle: Klucel (hydroxypropylcellulose) (HPC)",97 % of control
same,T/C,"dose: 200.0 mg/kg/injection, schedule: Q01DX001 (ip), vehicle: Klucel (hydroxypropylcellulose) (HPC)",99 % of control
same,T/C,"dose: 400.0 mg/kg/injection, schedule: Q01DX001 (ip), vehicle: Klucel (hydroxypropylcellulose) (HPC)",94 % of control
O=C(C=C(C(F)(F)F)C(F)(F)F)c1ccc(Cl)c2ccccc12,T/C,"dose: 12.5 mg/kg/injection, schedule: Q04DX003 (ip), vehicle: saline with Tween-80",113 % of control
same,T/C,"dose: 25.0 mg/kg/injection, schedule: Q04DX003 (ip), vehicle: saline with Tween-80",118 % of control
COc1cc2c(c(OC)c1OC)C(=O)CCC2,T/C,"dose: 25.0 mg/kg/injection, schedule: Q04DX003 (ip), vehicle: Klucel (hydroxypropylcellulose) (HPC)",100 % of control
same,T/C,"dose: 50.0 mg/kg/injection, schedule: Q04DX003 (ip), vehicle: Klucel (hydroxypropylcellulose) (HPC)",104 % of control
same,T/C,"dose: 100.0 mg/kg/injection, schedule: Q04DX003 (ip), vehicle: Klucel (hydroxypropylcellulose) (HPC)",92 % of control and 93 % of control
same,T/C,"dose: 400.0 mg/kg/injection, schedule: Q04DX003 (ip), vehicle: Klucel (hydroxypropylcellulose) (HPC)",90 % of control
NC1CC(=O)N(Cc2ccccc2)C1=O (stereo not drawn),T/C,[1],97 % of control
same,T/C,[2],91 % of control
same,T/C,[3],93 % of control
